Tests used:
[1] = system: barnyardgrass (Echinochloa crus-galli); test: Test F pre-/postemergence: barnyardgrass; type: in vivo
Outline: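 Seeds were sown in silt loam soil and sprayed preemergence with test chemical in a non-phytotoxic solvent mixture containing surfactant; postemergence treatments went onto plants 2 to 18 cm tall (1- to 4-leaf stage) grown in peat moss/vermiculite medium. After 14 to 21 days in a greenhouse, injury was rated visually against controls, 0 (no effect) to 100 (complete control).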

Waterhemp = test: Test C postemergence: waterhemp; type: in vivo, Amaranthus rudis
Oilseed Rape = test: Test C pre-/postemergence: oilseed rape; type: in vivo
Description: Seeds of plant species selected from blackgrass (Alopecurus myosuroides), bromegrass, downy (downy bromegrass, Bromus tectorum), foxtail, green (green foxtail, Setaria viridis), ryegrass, Italian (Italian ryegrass, Lolium multiflorum), winter wheat (Triticum aestivum), wild oat (Avena fatua), galium (catchweed bedstraw, Galium aparine), bermudagrass (Cynodon dactylon), surinam grass (Brachiaria decumbens), cocklebur (common cocklebur, Xanthium strumarium), corn (Zea mays), large crabgrass (Digitaria sanguinalis), woolly cupgrass (Eriochloa villosa), foxtail, giant (giant foxtail, Setaria faberii), goosegrass (Eleusine indica), johnsongrass (Sorghum halepense), kochia (Kochia scoparia), lambsquarters (Chenopodium album), morningglory (Ipomoea coccinea), nightshade (eastern black nightshade, Solanum ptycanthum), nutsedge, yellow (yellow nutsedge, Cyperus esculentus), pigweed (Amaranthus retroflexus), ragweed (common ragweed, Ambrosia elation), soybean (Glycine max), common (oilseed) sunflower (Helianthus annuus), Russian thistle (Salsola kali) and velvetleaf (Abutilon theophrasti) were planted into a blend of loam soil and sand and treated preemergence with test chemicals formulated in a non-phytotoxic solvent mixture which included a surfactant.
At the same time, plants selected from these crop and weed species and also barley (winter barley, Hordeum vulgare), canarygrass (Phalaris minor), chickweed (common chickweed, Stellaria media) windgrass (Apera spica-venti) and deadnettle (henbit deadnettle, Lamium amplexicaule) were planted in pots containing Redi-Earth® planting medium (Scotts Company, 14111 Scottslawn Road, Marysville, Ohio 43041) comprising spaghnum peat moss, vermiculite, wetting agent and starter nutrients and treated with postemergence applications of test chemicals formulated in the same manner. Plants ranged in height from 2 to 18 cm (1- to 4-leaf stage) for postemergence treatments.
Treated plants and controls were maintained in a greenhouse for 13 to 15 days, after which time all species were compared to controls and visually evaluated. Plant response ratings, summarized in Table C, are based on a scale of 0 to 100 where 0 is no effect and 100 is complete control. A dash (-) response means no test result.

[2] = system: ryegrass, Italian (Italian ryegrass, Lolium multiflorum); test: Test D pre-/postemergence: ryegrass, Italian; type: in vivo
Outline: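 We sprayed chemicals in a surfactant-containing solvent onto silt loam at planting (preemergence) and onto 1- to 4-leaf seedlings (postemergence). Fourteen to 21 days later, each species was rated visually from 0 to 100 relative to controls.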

[3] = Preemergence, 16 g ai/ha, scale 0 to 100, 0 no effect, 100 complete control
[4] = Preemergence, 31 g ai/ha, scale 0 to 100, 0 no effect, 100 complete control
[5] = Preemergence, 62 g ai/ha, scale 0 to 100
[6] = Preemergence, 125 g ai/ha, scale 0 to 100
[7] = Preemergence, 250 g ai/ha, scale 0 to 100
[8] = 125 g ai/ha, scale 0 to 100, 0 no effect, 100 complete control
[9] = Preemergence, 250 g ai/ha, scale 0 to 100, 0 no effect, 100 complete control
[10] = Postemergence, 31 g ai/ha, scale 0 to 100 (0 no effect, 100 complete control)
[11] = Postemergence, 62 g ai/ha, scale 0 to 100 (0 no effect, 100 complete control)
[12] = Postemergence, 125 g ai/ha, scale 0 to 100, 0 no effect, 100 complete control
[13] = Postemergence, 16 g ai/ha, scale 0 to 100
[14] = Postemergence, 250 g ai/ha, scale 0 to 100
[15] = Postemergence, 31 g ai/ha, scale 0 to 100
[16] = Postemergence, 125 g ai/ha, scale 0 to 100
[17] = 250 g ai/ha, scale 0 to 100 (0 no effect, 100 complete control)

In the case of CCc1nn(-c2ccc(F)cc2)nc1Cc1ccnc(C(F)(F)F)c1 [Compound 154], the “Plant response rating, Barnyardgrass” value [1, 3] was 0, the “Plant response rating, Barnyardgrass” value [1, 4] was 5 and the “Plant response rating, Barnyardgrass” value [1, 5] was 85. The “Plant response rating, Barnyardgrass” value [1, 6] was 90, the “Plant response rating, Barnyardgrass” value [1, 7] was 100 and the “Plant response rating, Waterhemp” value (Waterhemp; [8]) was 98. For the same compound, the “Plant response rating, Oilseed Rape” value (Oilseed Rape; [9]) was 100.
With CCc1nn(-c2ccc(C(F)(F)F)cc2)nc1Cc1ccnc(C(F)(F)F)c1 [Compound 155] the “Plant response rating, Barnyardgrass” value [1, 5] was 30, the “Plant response rating, Barnyardgrass” value [1, 6] was 30 and the “Plant response rating, Barnyardgrass” value [1, 7] was 100. The “Plant response rating, Waterhemp” value (Waterhemp; [8]) was 98, the “Plant response rating: Ryegrass, Italian” value [2, 10] was 15 and the “Plant response rating: Ryegrass, Italian” value [2, 11] was 25. For the same compound, the “Plant response rating: Ryegrass, Italian” value [2, 12] was 60, the “Plant response rating, Ryegrass, Italian” value [2, 13] was 5 and the “Plant response rating, Ryegrass, Italian” value [2, 3] was 0. The “Plant response rating, Ryegrass, Italian” value [2, 4] was 0, the “Plant response rating, Ryegrass, Italian” value [2, 5] was 10 and the “Plant response rating, Ryegrass, Italian” value [2, 6] was 65. For the same compound, the “Plant response rating, Oilseed Rape” value (Oilseed Rape; [9]) was 100.
Cc1nn(-c2ccc(F)c(C(F)(F)F)c2)nc1Cc1ccnc(C(F)(F)F)c1 [Compound 156] was tested, and the “Plant response rating, Waterhemp” value (Waterhemp; [8]) was 98, the “Plant response rating: Ryegrass, Italian” value [2, 10] was 15 and the “Plant response rating: Ryegrass, Italian” value [2, 11] was 10. For the same compound, the “Plant response rating: Ryegrass, Italian” value [2, 12] was 25, the “Plant response rating, Ryegrass, Italian” value [2, 13] was 5 and the “Plant response rating, Ryegrass, Italian” value [2, 3] was 0. The “Plant response rating, Ryegrass, Italian” value [2, 4] was 5, the “Plant response rating, Ryegrass, Italian” value [2, 5] was 5 and the “Plant response rating, Ryegrass, Italian” value [2, 6] was 60. The “Plant response rating, Oilseed Rape” value (Oilseed Rape; [9]) was 98.
With CCc1nn(-c2ccc(C(F)(F)F)cc2)nc1Oc1ccnc(C(F)(F)F)c1 [Compound 169] the “Plant response rating, Barnyardgrass” value [1, 14] was 40, the “Plant response rating, Barnyardgrass” value [1, 13] was 0 and the “Plant response rating, Barnyardgrass” value [1, 15] was 0. For the same compound, the “Plant response rating, Barnyardgrass” value ([1]; Postemergence, 62 g ai/ha, scale 0 to 100) was 15, the “Plant response rating, Barnyardgrass” value [1, 16] was 25 and the “Plant response rating, Barnyardgrass” value [1, 3] was 0. The “Plant response rating, Barnyardgrass” value [1, 4] was 0, the “Plant response rating, Barnyardgrass” value [1, 5] was 20 and the “Plant response rating, Barnyardgrass” value [1, 6] was 60. For the same compound, the “Plant response rating, Barnyardgrass” value [1, 7] was 95, the “Plant response rating, Waterhemp” value (Waterhemp; [8]) was 80 and the “Plant response rating, Waterhemp” value (Waterhemp; [17]) was 95. For the same compound, the “Plant response rating, Oilseed Rape” value (Oilseed Rape; [10]) was 30 and the “Plant response rating, Oilseed Rape” value (Oilseed Rape; [9]) was 100.
For CCc1nn(-c2ccc(F)c(F)c2)nc1Oc1ccnc(C(F)(F)F)c1 [Compound 171], the “Plant response rating, Barnyardgrass” value [1, 3] was 0, the “Plant response rating, Barnyardgrass” value [1, 4] was 5 and the “Plant response rating, Barnyardgrass” value [1, 5] was 5. For the same compound, the “Plant response rating, Barnyardgrass” value [1, 6] was 80, the “Plant response rating, Barnyardgrass” value [1, 7] was 100 and the “Plant response rating, Waterhemp” value (Waterhemp; [8]) was 75. For the same compound, the “Plant response rating, Waterhemp” value (Waterhemp; [17]) was 98, the “Plant response rating, Oilseed Rape” value (Oilseed Rape; [10]) was 5 and the “Plant response rating, Oilseed Rape” value (Oilseed Rape; [9]) was 90.
In the case of CCCc1nn(-c2ccc(F)c(F)c2)nc1Oc1ccnc(C(F)(F)F)c1 [Compound 172], the “Plant response rating, Barnyardgrass” value [1, 14] was 85, the “Plant response rating, Barnyardgrass” value [1, 15] was 20 and the “Plant response rating, Barnyardgrass” value [1, 16] was 50. For the same compound, the “Plant response rating, Barnyardgrass” value [1, 4] was 70, the “Plant response rating, Barnyardgrass” value [1, 6] was 100 and the “Plant response rating, Barnyardgrass” value [1, 7] was 100. The “Plant response rating, Waterhemp” value (Waterhemp; [8]) was 98, the “Plant response rating, Waterhemp” value (Waterhemp; [17]) was 98 and the “Plant response rating, Oilseed Rape” value (Oilseed Rape; [10]) was 50. The “Plant response rating, Oilseed Rape” value (Oilseed Rape; [9]) was 100.
For CCc1nn(-c2ccc(C(F)(F)F)c(F)c2)nc1Oc1ccnc(C(F)(F)F)c1 [Compound 183], the “Plant response rating, Waterhemp” value (Waterhemp; [8]) was 100, the “Plant response rating, Waterhemp” value (Waterhemp; [17]) was 100 and the “Plant response rating, Oilseed Rape” value (Oilseed Rape; [10]) was 20. For the same compound, the “Plant response rating, Oilseed Rape” value (Oilseed Rape; [9]) was 100.
In the case of CCOc1nn(-c2ccc(Cl)cc2)nc1Cc1ccnc(C(F)(F)F)c1 [Compound 188], the “Plant response rating, Waterhemp” value (Waterhemp; [8]) was 100, the “Plant response rating, Waterhemp” value (Waterhemp; [17]) was 100 and the “Plant response rating, Oilseed Rape” value (Oilseed Rape; [10]) was 40. The “Plant response rating, Oilseed Rape” value (Oilseed Rape; [9]) was 100.
